Measurements from US20130178453A1, “Cannabinoid Agonists” (priority 2010, published 2013).
Read-outs that look alike come from different tables or passages of the source.

Columns and labels:
hCB1 [1] = molecular target: T1, hCB1 (Homo sapiens, UniProt P21554); assay: hCB1 cAMP agonist assay (HEK-293 cells); assay type: cell-based; conditions: cAMP agonist, HEK, 96-well
hCB1 [2] = molecular target: T1, hCB1; assay: hCB1 radioligand binding assay ([3H]-CP 55,940 displacement); conditions: HEK membranes
Excerpt: (§1) cDNA expression clones for human CB 1 (hCB1, Genbank Accession No. AY225225) and human CB2 (hCB2, Genbank Accession No. AY242132) expressed in vector pcDNA3.1+ were purchased from UMR cDNA Resource Center, Rolla, Mo. (Clone ID CNR01L000 for hCB1; CNR0200000 for hCB2).
Stable, HEK-293-derived cell lines that recombinantly express hCB1 or hCB2 were established. In brief, the clone hCB1 (CNR1L) or hCB2 (CNR2) was transfected into human embryonic kidney cells (HEK-293) using Lipofectamine 2000 (Gibco, Cat#11668-019) according to the manufacturer's protocol. Transfected clones were isolated by single colony purification and clones were screened for receptor expression using a whole cell, ^3H—CP 55,940 radioligand binding assay. HEK-293 stable cells were maintained in Dulbecco's modified Eagles medium (DMEM) containing 10% fetal bovine serum, 2 mM L-glutamine and 0.5 mg/mL G-418.
(§2) Membranes were isolated from transfected cells as follows. Monolayers of cultured cells were washed twice with phosphate-buffered saline (PBS). Cells were scraped into 20 mM HEPES, pH 7.4, 10 mM EDTA containing complete cocktail protease inhibitors (Roche, Catalog #11 697 498 001), and were homogenized by an electric-powered mechanical probe homogenizer (Omni GLH; probe G7-195S) for 40 seconds at 7000 rpm. Homogenates were centrifuged 10 minutes at 1000×g at 4° C. The supernatant was collected and was centrifuged for 1 hour at 40,000×g. The supernatant was then decanted and the resulting pellet was re-suspended in 20 mM HEPES, pH 7.4, 5 mM MgCl2, 1 mM EDTA, 10% sucrose with complete cocktail protease inhibitors. Protein concentration of membrane suspensions were measured by Bradford Protein Assay using bovine serum albumin as the standard (BioRad catalog #500-0006). Protein concentrations of membrane suspensions were adjusted with the final buffer in the range of 5 to 10 mg/mL and were stored at −80° C. until further use.
Radioligand binding assays were performed by incubating membranes (2-10 μg protein) prepared from HEK-293 cells expressing recombinant human cannabinoid receptors, CB 1 or CB2, at room temperature with 0.5 nM cannabinoid receptor agonist, [^3H]-CP 55,940 (Perkin Elmer, catalog #NET 1051) in 0.2 mL of binding buffer (50 mM Tris-HCl, pH 7.5, 5 mM MgCl2, 2.5 mM EDTA) and 0.1% fatty acid free bovine serum albumin (Sigma Cat. #A0821) for 90 minutes. A rapid filtration technique using Millipore FB filter plates (Catalog #MADVNOB) and filtration apparatus (Millipore system Catalog MAVM0960R) with vacuum aspiration was used to harvest and rinse labeled membranes (8 times with 0.2 mL of chilled binding buffer). The radioactivity bound to the filters was counted with 0.05 mL of liquid scintillant (UltraGold MV, PerkinElmer catalog #6013159) in a scintillation counter (Perkin Elmer Microbeta instrument). Nonspecific binding was determined in the presence of unlabeled 1 μM CP 55,940 (Sigma Aldrich, catalog #C1112). Binding data were analyzed using GraphPad Prism (GraphPad Software, Inc. San Diego, Calif.).

hCB2 [3] = molecular target: T2, hCB2 (Homo sapiens, UniProt P34972); assay: hCB2 radioligand binding assay ([3H]-CP 55,940 displacement); conditions: HEK membranes
T2 sequence (P34972 whole entry): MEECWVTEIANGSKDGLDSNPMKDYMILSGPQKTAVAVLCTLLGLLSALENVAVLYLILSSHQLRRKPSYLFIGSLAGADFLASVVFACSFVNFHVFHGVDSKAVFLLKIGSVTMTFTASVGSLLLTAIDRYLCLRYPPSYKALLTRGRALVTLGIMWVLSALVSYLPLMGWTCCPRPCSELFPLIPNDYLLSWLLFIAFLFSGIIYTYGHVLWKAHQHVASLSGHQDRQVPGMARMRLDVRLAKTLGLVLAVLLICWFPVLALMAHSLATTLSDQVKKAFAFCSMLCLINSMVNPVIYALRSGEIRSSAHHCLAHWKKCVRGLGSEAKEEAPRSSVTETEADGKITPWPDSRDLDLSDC
Method: as §1
as §2, with “Cells were scraped into 20 mM HEPES, pH 7.4, 10 mM EDTA containing complete cocktail protease inhibitors (Roche, Catalog #11 697 498 001), and were homogenized by an electric-powered mechanical probe homogenizer (Omni GLH; probe G7-195S) for 40 seconds at 7000 rpm.” left out
A rapid filtration technique using Millipore FB filter plates (Catalog #MADVNOB) and filtration apparatus (Millipore system Catalog MAVM0960R) with vacuum aspiration was used to harvest and rinse labeled membranes (8 times with 0.2 mL of chilled binding buffer). […] Binding data were analyzed using GraphPad Prism (GraphPad Software, Inc. San Diego, Calif.).

hCB2 [4] = molecular target: T2, hCB2; assay: hCB2 cAMP agonist assay (HEK-293 cells); assay type: cell-based
Method: as §1
cAMP assays were performed in HEK-293 cells stably expressing human CB 1 or CB2 receptors. […] Cells suspensions were centrifuged and the cells were washed once with PBS, were centrifuged again, and the cells were resuspended in HBSS (Hank's Balanced Salt Solution, Cellgro, Cat #21-022-CV) solution containing 10 mM HEPES and 0.1% fatty acid free BSA (Sigma, Cat #A0281). Cell suspensions were prepared at 1,500,000 cells per mL. Stock solutions of test substances (10 mM) in DMSO were diluted to 1 mM using 30% DMSO as diluent. Test substances of solutions (1 mM) were further diluted down to 3× of final assay concentrations in the above HBSS buffer containing 0.1% BSA in the presence of 90 uM forskolin (Sigma Cat#F6886). To perform the assay, 20 μL of cell suspension (1,500,000 cells/mL) were added to each well in 96 well plate and treated with 10 μL test substance solution diluted as described above. Cells and compounds were incubated at 37° C. for 30 minutes. Cells were lysed and cAMP concentration was measured using DiscoveRx-XS+ cAMP assay kit (DiscoveRx Corporation Ltd., Fremont, Calif., USA, Cat #90-0075-03), following the manufacturer's protocol. GraphPad Prism software was used to calculate EC50 values using sigmoidal dose response curve fitting. The maximal amount of cAMP produced by forskolin was defined as 100%.

hCB2 [5] = molecular target: T2, hCB2; assay: hCB2 GTPγS agonist assay (HEK-293 membranes); assay type: biochemical
Method: as §1
as §2, with “Cells were scraped into 20 mM HEPES, pH 7.4, 10 mM EDTA containing complete cocktail protease inhibitors (Roche, Catalog #11 697 498 001), and were homogenized by an electric-powered mechanical probe homogenizer (Omni GLH; probe G7-195S) for 40 seconds at 7000 rpm.” left out
^35S GTPγS binding assays were performed by incubating recombinant cell membranes prepared above (5 μg) in the presence of scintillation proximity assay beads (SPA beads, Catalog #RPNQ0252 GE Healthcare, Buckinghamshire, England) in GTPγS binding buffer [50 mM HEPES (pH 7.4), 100 mM NaCl, 5 mM MgCl2, 0.001% saponin (Sigma catalog #S4521)] supplemented with 20 uM GDP (Sigma catalog #G7127) in the presence or absence of test compound. The reaction was carried out in 96-well microplates with 0.1 nM [^35S]GTPγS (specific activity=1250 Ci/mmol; Perkin Elmer catalog #NEG030X250UC) in a final volume of 100 μL. After a 90 min room temperature incubation, the reaction was analyzed using a scintillation counter (Perkin Elmer Microbeta instrument). Binding data were analyzed using GraphPad Prism.

[6] = cAMP agonist, HEK, 96-well, read-out: hCB2 EC50 (cAMP ag, nM, HEK (96-well))
[7] = read-out: hCB1 IC50 (CP displ, nM, HEK)
[8] = read-out: hCB2 IC50 (CP displ, nM, HEK)
[9] = GTPγS agonist, HEK membranes, read-out: hCB2 EC50 (GTPyS ag, nM, HEK)

T1 sequence (P21554 whole entry): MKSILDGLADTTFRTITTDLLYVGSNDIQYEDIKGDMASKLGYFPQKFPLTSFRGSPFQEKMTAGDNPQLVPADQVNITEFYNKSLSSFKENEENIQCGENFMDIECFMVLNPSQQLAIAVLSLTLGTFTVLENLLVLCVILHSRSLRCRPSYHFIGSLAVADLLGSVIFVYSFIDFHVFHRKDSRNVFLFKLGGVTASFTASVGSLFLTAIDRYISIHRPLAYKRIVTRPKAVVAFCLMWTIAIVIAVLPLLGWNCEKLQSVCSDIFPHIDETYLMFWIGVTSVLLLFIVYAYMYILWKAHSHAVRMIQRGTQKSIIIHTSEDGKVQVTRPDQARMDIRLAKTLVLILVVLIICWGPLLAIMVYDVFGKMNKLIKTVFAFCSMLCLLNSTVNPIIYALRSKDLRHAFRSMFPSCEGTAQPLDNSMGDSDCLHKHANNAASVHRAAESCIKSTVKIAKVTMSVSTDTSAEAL

| SMILES | hCB1 EC50 (cAMP ag, nM, HEK (96-well)) (hCB1 [1]) | IC50 (hCB1 [2]; hCB1 IC50 (CP displ, nM, HEK)) | IC50 (hCB2 [3]; hCB2 IC50 (CP displ, nM, HEK)) | EC50 (hCB2 [4]; [6]) | IC50 (hCB1 [2]; [7]) | IC50 (hCB2 [3]; [8]) | EC50 (hCB2 [5]) | EC50 (hCB2 [4]) | EC50 (hCB2 [5]; [9]) |
| --- | --- | --- | --- | --- | --- | --- | --- | --- | --- |
| CCCn1c(C)c(C(=O)c2c(C)[nH]c3sccc23)c2ccccc21 [Compound I-6] | NS (“Not Significant,” which means less than 30% agonist activity when compared to the positive control) | > 10000 nM | > 10000 nM |  |  |  |  |  |  |
| CCOC(=O)CCn1c(C)c(C(=O)c2cc3ccsc3n2CC)c2ccccc21 [Compound I-26] | NS (“Not Significant,” which means less than 30% agonist activity when compared to the positive control) | > 10000 nM | 100 to 1000 nM | < 100 nM |  |  |  |  |  |
| CCCn1c(C)c(C(=O)c2cc3scnc3[nH]2)c2ccccc21 [Compound I-30] | NS (“Not Significant,” which means less than 30% agonist activity when compared to the positive control) | > 10000 nM | 1000 to 10000 nM |  |  |  |  |  |  |
| CCn1c(C(=O)c2c(C)[nH]c3ccccc23)cc2ccsc21 [Compound I-38] | NS (“Not Significant,” which means less than 30% agonist activity when compared to the positive control) |  |  |  | > 10000 nM | 1000 to 10000 nM |  |  |  |
| CCn1c(C(=O)c2c[nH]c3ccncc23)cc2ccsc21 [Compound I-39] | NS (“Not Significant,” which means less than 30% agonist activity when compared to the positive control) |  |  |  | > 10000 nM | > 10000 nM |  |  |  |
| CCn1c(C(=O)c2c[nH]c3cnccc23)cc2ccsc21 [Compound I-40] | NS (“Not Significant,” which means less than 30% agonist activity when compared to the positive control) |  |  |  | > 10000 nM | > 10000 nM |  |  |  |
| CCCn1c(C(=O)c2c[nH]c3ccncc23)cc2ccsc21 [Compound I-44] | NS (“Not Significant,” which means less than 30% agonist activity when compared to the positive control) |  |  |  | > 10000 nM | > 10000 nM |  |  |  |
| CCCn1c(C)c(C(=O)c2cc3ccsc3n2CC)c2ccccc21 [Compound I-54] |  | 1000 to 10000 nM | < 100 nM |  |  |  | < 100 nM | < 100 nM |  |
| CCCn1c(C)c(C(=O)c2cc3ccsc3n2C)c2ccccc21 [Compound I-55] |  | > 10000 nM | 100 to 1000 nM |  |  |  | 100 to 1000 nM | < 100 nM |  |
| CCCn1c(C)c(C(=O)c2cc3cc(C)n(CCC)c3s2)c2ccccc21 [Compound I-56] |  | 1000 to 10000 nM | < 100 nM |  |  |  | < 100 nM | < 100 nM |  |
| CCCn1c(C(=O)c2c(C)n(CCN3CCCCC3)c3ccccc23)cc2ccsc21 [Compound I-59] |  | 100 to 1000 nM | < 100 nM |  |  |  | 100 to 1000 nM | < 100 nM |  |
| CCCn1c(C(=O)c2c[nH]c3ccccc23)cc2ccsc21 [Compound I-64] |  | > 10000 nM | 100 to 1000 nM | 100 to 1000 nM |  |  |  |  | 100 to 1000 nM |
| CCCn1c(C)c(C(=O)c2cc3ccsc3n2CC)c2c1CCC(C)(C)C2 [Compound I-65] |  | 1000 to 10000 nM | < 100 nM | < 100 nM |  |  |  |  | < 100 nM |
| CCCn1c(C(=O)c2c(C)[nH]c3ccc(C)cc23)cc2ccsc21 [Compound I-68] | NS (“Not Significant,” which means less than 30% agonist activity when compared to the positive control) | > 10000 nM | 1000 to 10000 nM |  |  |  |  |  |  |
| CCCn1c(C(=O)c2c3c(n(CCN4CCOCC4)c2C)CCCC3)cc2ccsc21 [Compound I-79] |  | 100 to 1000 nM | < 100 nM | < 100 nM |  |  |  |  | < 100 nM |
| Cc1c(C(=O)c2cc3ccsc3[nH]2)c2ccccc2n1CCN1CCOCC1 [Compound I-82] |  | 1000 to 10000 nM | 100 to 1000 nM |  |  |  | 100 to 1000 nM | 100 to 1000 nM |  |
| CCCn1c(C)c(C(=O)c2cc3ccsc3n2CC)c2c1CCCC2 [Compound I-85] |  | 1000 to 10000 nM | < 100 nM |  |  |  | < 100 nM | < 100 nM |  |
| CCCn1c(C)c(C(=O)c2cc3ccsc3n2CC)c2c1CCCCC2 [Compound I-87] |  | 1000 to 10000 nM | < 100 nM | < 100 nM |  |  |  |  | < 100 nM |
